Experimental data taken from patent US20120148680A1, “EYE CREAM AND PREPARATION METHOD” (MAYINGLONG PHARMACEUTICAL GROUP CO., LTD, priority 2010, published 2012).

Test system: red blood cells
Assay: Stimulation test, Red Blood Cell (RBC) test system, INVITTOX n° 37
Format: cell-based
Settings: relative to SDS
Protocol: Experimental method: Refer to ECVAM DB-ALM: INVITTOX protocol; Red Blood Cell Test System INVITTOX n° 37, hereinafter referred to as RBC test system.
The basic principle of the RBC test system is to determine the damage on the cell membrane caused by chemicals and the change of cell membrane permeability resulted from it. The damage degree of the cell membrane, which is directly related to the stimulation of a product, is evaluated through determining the amount of hemoglobin leaked from red blood cells.
The absorbance of red blood cell suspension after exposure to the chemicals is determined by spectrophotometric method, then the hemolysis rate and HSO value (i.e. the concentration value of the test substance, 50% of red blood cells of which develop hemolysis) can be calculated. The HSO value and the results of two grading standards in Draize test, i.e. the maximum average Draize total score (MAS) and the 24 h after application and scores of composition parameters (cornea, conjunctiva and iris) thereof are subjected to correlation analysis to show good consistency. At the same concentration, the higher the hemolysis rate of the sample is, the stronger the stimulation of the sample is.
The stimulation ratio of each sample is as shown in the following table relative to SDS after the comparison of the SDS stimulation ratio: […]

## CCCCCCCCCCCCOS(=O)(=O)[O-].[Na+] [SDS control substance, SDS]
  Stimulation ratio: 100%
